Measured values published in patent US9434719B2, “3-pyrimidin-4-yl-oxazolidin-2-ones as inhibitors of mutant IDH” (NOVARTIS AG, priority 2013, dated 2016).
Counter-ions that a name gives are not always drawn.

Legend:
Type in all cases: in vitro ADME
[1] = Metabolic stability in liver microsomes, Method I, rat; conditions: 1 μM test compound; for microsomal CLint at 1 μM: male, Sprague-Dawley, liver microsomes; for microsomal CLint at 1 μM / microsomal CLint: rat; for microsomal CLint: microsomes
Protocol: (§1) Determination of Metabolic Stability in Liver Microsomes—Method I
(§2) The in vitro metabolic stability assay was performed in a 96-well glass plate with shaking incubation at 37° C. A 10 mM DMSO stock solution of the test compound was sequentially diluted 1:1000 to yield a final reaction concentration of 1 μM in 50 mM KPi. […] 30 μL of the 10 μM solution containing the test compound was added to 120 μL of microsomal protein for 150 μL enzyme-compound mixture. The reaction was initiated by adding 150 μL of cofactor solution (2 mM NADPH, 4 mM MgCl in 50 mM KPi) to the enzyme-compound mixture, and the final reaction concentrations are listed in the table below.
(§3) At 0, 5, 10 and 30 minute time points in the reaction, reaction aliquots (50 μL) were removed and the reactions were terminated by the addition of acetonitrile (150 μL) containing a mass spectrometry internal standard (1 μM glyburide). The samples were centrifuged and the supernatants analyzed by LC-MS/MS for quantization of remaining compound.
(§4) Analysis of the samples was performed on a high performance liquid chromatography-tandem mass spectrometry (LC/MS) system consisting of a Thermo TSQ Quantum Ultra mass spectrometer, an H-ESI ion source, a CTC-HTS Pal autosampler, and an Agilent LC Pump.
(§5) Mobile phase A consisted of purified water containing 0.01% formic acid. Mobile phase B consisted of acetonitrile containing 0.01% formic acid. The flow rate was 1 mL/min. The injection volume was 10 μL. Compounds were detected using the Thermo QuikQuan software which collects intensity data for all fragments related to the molecular weight of the test compound. After collection of the raw data, the software identifies and integrates the peak of the strongest intensity.
(§6) Each microsomal elimination rate, kmic, was based on a 4-point elimination curve tested in singlet. LC-MS/MS raw data for a reaction plate was returned as integrated analyte peak areas for the test compound and internal standard used in the quench solution for the reaction to enable use of analyte:internal standard peak area ratios (PARs) for all data comparisons. The reaction time point (e.g. 0, 5, 20 or 30 minutes) was plotted versus the natural logarithm of percent test compound remaining relative to 0 minutes (based on relative PAR).

[2] = Metabolic stability in liver microsomes, Method I, mouse; conditions: for microsomal CLint at 1 μM: male, CD-1, 1 μM test compound; for microsomal CLint: 1 μM test compound
Protocol: as §1, §2, §3, §4, §5, §6

[3] = Metabolic stability in liver microsomes, Method I, human; conditions: 1 μM test compound; for microsomal CLint at 1 μM: pooled liver microsomes
Protocol: as §1, §2, §3, §4, §5, §6

[4] = Metabolic stability in liver microsomes, Method II, rat; conditions: 1 μM test compound, NADPH + UDPGA; for microsomal CLint at 1 μM: male, Sprague-Dawley
Protocol: Determination of Metabolic Stability in Liver Microsomes—Method II
The in vitro metabolic stability assay was performed in a 96-deep-well plate with incubation at 37° C. 10 mM DMSO stock solution of the test compound was diluted 1:20 in acetonitrile, followed by an additional 1:10 dilution in 100 mM potassium phosphate buffer (KPi) to yield a final reaction concentration of 1 μM. […] 290 μL of cofactor solution (1.7 mM NADPH, 1.7 mM UDPGA, 3.4 mM MgCl in 100 mM KPi) was added to 200 μL of microsomal protein for a final volume of 490 μL. The reaction was initiated by adding 10 μL of the 50 μM test solution to 490 μL of microsomal protein for a final volume 500 μL enzyme-compound mixture.
At 0, 5, 15 and 30 minute time points in the reaction, reaction aliquots (75 μL) were removed and the reactions were terminated by the addition of 50:50 acetonitrile/methanol solution (75 μL) containing a mass spectrometry internal standard (0.5 μM glyburide). The samples were centrifuged at 4000 RPM for 10 minutes. Supernatants (15 μL aliquots) were transferred to a new plate where each well contains 90 μL of deionized water. The supernatants solution were analyzed by UPLC/MS/MS for quantitation of parent remaining compound under multiple reactions monitoring mode (MRM) in positive mode.
Analysis of the samples was performed on an ultra-performance liquid chromatography-tandem mass spectrometry (UPLC/MS/MS) system consisting of an AB Sciex Qtrap 5500 mass spectrometer, AB Sciex Turbo V ion source, Waters Acquity Sample Organizer, Waters Acquity Column manager, Waters Acquity Sample manager, and a Waters Acquity Binary Solvent Manager. Chromatographic separation of analyte and internal standard was achieved using a reverse phase C-18 column (50×2.1 mm, 1.7 μm, Acquity UPLC BEH C-18) with the following UPLC mobile phases and elution gradient:
UPLC mobile phase A: 0.25% formic acid in 5% methanol; mobile phase B: 0.25% formic acid in 95% water.
The injection volume was 5 μL. Compounds were detected using Analyst 1.5.1 software which collects intensity data for all fragments related to the molecular weight of the test compound. After collection of the raw data, the software identifies and integrates the peak of the strongest intensity.
Each microsomal elimination rate, k, was based on a 4-point elimination curve tested in duplicates. LC-MS/MS raw data for a reaction plate was returned as integrated analyte peak areas for the test compound and internal standard used in the quench solution for the reaction to enable use of analyte:internal standard peak area ratios (PARs) for all data comparisons. The reaction time point (e.g. 0, 5, 15 and 30 minutes) was plotted versus the natural logarithm of percent test compound remaining relative to 0 minutes (based on relative PAR). The slope of this clearance plot, k, was used to calculate the in vitro half-life.
[formula] The intrinsic clearance value, CLint (expressed as μL/min/mg microsomal protein) calculation is shown below:
[formula] Where V=the incubation volume (mL) and M=the microsomal protein content in the incubation (mg)

Row | Structure (SMILES) | microsomal CLint at 1 μM [1] [µL/min/mg] | microsomal CLint at 1 μM [2] [µL/min/mg] | microsomal CLint at 1 μM [3] [µL/min/mg] | further results
1 | Cc1ccc(-c2noc(C(C)Nc3ncc(F)c(N4C(=O)OC[C@@H]4[C@@H](C)O)n3)n2)cc1F (single isomer, unassigned) [Example 122] | 69.4 | – | – | –
2 | CC(Nc1nccc(N2C(=O)OC[C@@H]2[C@@H](C)O)n1)c1nc(-c2ccc3c(c2)OC(F)(F)O3)no1 (single isomer, unassigned) [Example 169] | 68.8 | – | – | Rat microsomal stability CLint [1]: 60.93 µL/min/mg
3 | CC(Nc1nccc(N2C(=O)OC[C@@H]2[C@@H](C)O)n1)c1nc(-c2ccc(C(F)(F)F)cc2)no1 (single isomer, unassigned) [Example 174] | 48.5 | – | – | –
4 | CC(Nc1nccc(N2C(=O)OC[C@@H]2[C@@H](C)O)n1)c1nc(-c2ccc(C(F)(F)F)cc2)no1 (single isomer, unassigned) [Example 175] | – | 56.3 | 39.8 | Rat microsomal stability CLint [1]: 50.51 µL/min/mg
5 | CC(Nc1nccc(N2C(=O)OC[C@@H]2[C@@H](C)O)n1)c1nc(-c2ccc(OC(F)(F)F)cc2)no1 (single isomer, unassigned) [Example 181] | 56.6 | – | – | –
6 | C[C@H](Nc1ncc(F)c(N2C(=O)OC[C@@H]2CF)n1)c1cn(-c2ccc(C(F)F)cc2)cn1 [434 as TFA salt] | – | – | – | microsomal CLint [1]: 41 µL/min/mg; microsomal CLint [2]: 10.7 µL/min/mg; microsomal CLint [3]: < 7.7 µL/min/mg; microsomal CLint [4]: 10.8 µL/min/mg
7 | C[C@H](Nc1nccc(N2C(=O)OC[C@@H]2[C@H](C)F)n1)c1cn(-c2ccc(C(F)F)cc2)cn1 [456 as TFA salt] | – | – | – | microsomal CLint [1]: 44.7 µL/min/mg; microsomal CLint [3]: 16.8 µL/min/mg
8 | C[C@H](Nc1nccc(N2C(=O)OC[C@@H]2CF)n1)c1cn(-c2ccc(Cl)c(F)c2)cn1 [473 as TFA salt] | – | – | – | microsomal CLint [1]: 72.5 µL/min/mg; microsomal CLint [2]: 17.7 µL/min/mg; microsomal CLint [3]: < 7.7 µL/min/mg; microsomal CLint [4]: 33.3 µL/min/mg
9 | C[C@H](Nc1nccc(N2C(=O)OC[C@@H]2CF)n1)c1cn(-c2ccc(C(F)F)c(F)c2)cn1 [475 as TFA salt] | – | – | – | microsomal CLint [1]: 54 µL/min/mg; microsomal CLint [2]: 15.7 µL/min/mg; microsomal CLint [3]: < 7.7 µL/min/mg; microsomal CLint [4]: 16.2 µL/min/mg
10 | C[C@H](Nc1nccc(N2C(=O)OC[C@@H]2[C@H](C)O)n1)c1ccc(CN2CCN(C)C(C)(C)C2)c(F)c1 [Example 48, (R)-3-(2-((S)-1-(3-fluoro-4-((3,3,4-trimethylpiperazin-1-yl)methyl)phenyl)ethylamino)pyrimidin-4-yl)-4-((S)-1-hydroxyethyl)oxazolidin-2-one] | 49.1 | 173 | 121 | –
11 | C[C@H](Nc1nccc(N2C(=O)OC[C@@H]2[C@@H](C)O)n1)c1ccc(-c2ccnc(C(F)(F)F)c2)cn1 [Example 55, (R)-4-((R)-1-hydroxyethyl)-3-(2-(((S)-1-(2′-(trifluoromethyl)-[3,4′-bipyridin]-6-yl)ethyl)amino)pyrimidin-4-yl)oxazolidin-2-one] | 58.4 | 63.1 | – | –
12 | Cc1cc(-c2ccnc(C(F)(F)F)c2)cnc1[C@H](C)Nc1nccc(N2C(=O)OC[C@@H]2[C@@H](C)O)n1 [Example 61, (R)-4-((R)-1-hydroxyethyl)-3-(2-(((S)-1-(5-methyl-2′-(trifluoromethyl)-[3,4′-bipyridin]-6-yl)ethyl)amino)pyrimidin-4-yl)oxazolidin-2-one] | 34.6 | 67.7 | 66.4 | –
13 | C[C@H](Nc1nccc(N2C(=O)OC[C@@H]2[C@@H](C)N)n1)c1cnc(-c2ccc(Cl)cc2)s1 [Example 380, (S)-4-((R)-1-aminoethyl)-3-(2-(((S)-1-(2-(4-chlorophenyl)thiazol-5-yl)ethyl)amino)pyrimidin-4-yl)oxazolidin-2-one] | 42.9 | 51 | 31.1 | microsomal CLint at 1 μM [4]: 30.2 µL/min/mg
14 | C[C@H](Nc1nccc(N2C(=O)OC[C@@H]2[C@H](C)F)n1)c1cn(-c2ccc(F)cc2)cn1 [Example 401, (R)-4-((S)-1-fluoroethyl)-3-(2-(((S)-1-(1-(4-fluorophenyl)-1H-imidazol-4-yl)ethyl)amino)pyrimidin-4-yl)oxazolidin-2-one] | 30.4 | 33.1 | < 7.7 | microsomal CLint at 1 μM [4]: 92.4 µL/min/mg
15 | C[C@H](Nc1nccc(N2C(=O)OC[C@@H]2CF)n1)c1cn(-c2ccc(Cl)cc2)cn1 [Example 404, (R)-3-(2-(((S)-1-(1-(4-chlorophenyl)-1H-imidazol-4-yl)ethyl)amino)pyrimidin-4-yl)-4-(fluoromethyl)oxazolidin-2-one] | 44.6 | 18.7 | < 7.7 | microsomal CLint at 1 μM [4]: 75.4 µL/min/mg
16 | C[C@H](Nc1nccc(N2C(=O)OC[C@@H]2[C@H](C)F)n1)c1ncc(-c2ccnc(C(F)(F)F)c2)cc1F [Example 463, (R)-3-(2-(((S)-1-(5-fluoro-2′-(trifluoromethyl)-[3,4′-bipyridin]-6-yl)ethyl)amino)pyrimidin-4-yl)-4-((S)-1-fluoroethyl)oxazolidin-2-one] | 50.8 | 35.5 | 28.3 | microsomal CLint at 1 μM [4]: 49.8 µL/min/mg
17 | C[C@H](Nc1nccc(N2C(=O)OC[C@@H]2[C@H](C)F)n1)c1ncc(-c2cccc(C(F)(F)F)c2F)cn1 [Example 467, (R)-3-(2-(((S)-1-(5-(2-fluoro-3-(trifluoromethyl)phenyl)pyrimidin-2-yl)ethyl)amino)pyrimidin-4-yl)-4-((S)-1-fluoroethyl)oxazolidin-2-one] | 75.6 | 275 | 53.3 | microsomal CLint at 1 μM [4]: 85.4 µL/min/mg
18 | C[C@H](Nc1nccc(N2C(=O)OC[C@@H]2[C@H](C)F)n1)c1ccc(-c2ccnc(C(F)(F)F)c2)cn1 [Example 468, (R)-4-((S)-1-fluoroethyl)-3-(2-(((S)-1-(2′-(trifluoromethyl)-[3,4′-bipyridin]-6-yl)ethyl)amino)pyrimidin-4-yl)oxazolidin-2-one] | 30.5 | 28.9 | 70.1 | –
19 | Cc1cc(-c2cnc([C@H](C)Nc3nccc(N4C(=O)OC[C@@H]4[C@H](C)F)n3)nc2)ccc1F [Example 469, (R)-3-(2-(((S)-1-(5-(4-fluoro-3-methylphenyl)pyrimidin-2-yl)ethyl)amino)pyrimidin-4-yl)-4-((S)-1-fluoroethyl)oxazolidin-2-one] | 132 | – | – | –
20 | Cc1cc([C@H](C)Nc2ncc(F)c(N3C(=O)OC[C@@H]3[C@H](C)F)n2)ncc1-c1ccnc(C(F)(F)F)c1 [Example 470, (R)-3-(5-fluoro-2-(((S)-1-(4-methyl-2′-(trifluoromethyl)-[3,4′-bipyridin]-6-yl)ethyl)amino)pyrimidin-4-yl)-4-((S)-1-fluoroethyl)oxazolidin-2-one] | 52.8 | 47.3 | 83.6 | –
21 | C[C@H](Nc1ncc(F)c(N2C(=O)OC[C@@H]2CF)n1)c1ncc(-c2ccc(Cl)cc2)o1 [Example 480, (R)-3-(2-(((S)-1-(5-(4-chlorophenyl)oxazol-2-yl)ethyl)amino)-5-fluoropyrimidin-4-yl)-4-(fluoromethyl)oxazolidin-2-one] | 65.2 | 51.5 | 35.6 | –
